{"source": "patent US8048882B2", "about": "“Pharmaceutical compositions with increased activity” (priority 2003, dated 2011)", "key": {"[1]": {"test_system": "GYKI 20039-induced tremor", "assay": "GYKI 20039-induced tremor test", "assay_type": "in vivo, mice", "conditions": "for change of effectiveness in tremor test when a serotonin uptake inhibitor is present: with 10 mg/kg fluoxetine or 10 mg/kg sertraline i.p., FIG. 4", "description": "Tremor can be induced by administration of GYKI 20039 (3-(2,6-diclorophenyl)-2-iminothiazolidine). The method was published by Kocsis P., Tarnawa I., Kovacs Gy., Szombathelyi Zs., Farkas S., 2002; Acta Pharmaceut. Hung., 72:49-61; U.S. Pat. No. 5,340,823, 1994, U.S. Pat. No. 5,198,446, JP 1992270293, EP 0468825, 1990 HU 4647.\nTests were carried out in male NMRI mice (19-21 g), the active substances were administered i.p., simultaneously.\nExperiments with combinations containing the active agents in a fixed ratio were also performed."}, "[2]": {"test_system": "maximal electroshock seizures", "assay": "Inhibition of maximal electroshock seizures (MES)", "assay_type": "in vivo, mice", "conditions": "sodium channel blocker 30 minutes prior to electroshock", "description": "Experiments in this respect were carried out on male NMRI mice (19-21 g).\nSerotonin uptake inhibitors were administered i.p. 45 minutes, while sodium channel blockers 30 minutes prior to the electroshock."}, "Rotarod test": {"assay": "Rotarod test", "conditions": "male, NMRI, mouse, in vivo, read-out: ED50, rotarod test in mice", "description": "By the rotarod test (Dunnham, N. W., Miya, T. S. J. Am. Pharm. Assoc. 46, 208, 1957) impaired coordination and disorders of the voluntary movement as possible side effects can be studied. In this respect the change in the potency of the voltage-dependent sodium channel blockers caused by the serotonin uptake inhibitors was far less pronounced, resulting in a more favourable side effect profile of the combinations compared to that of the parent compounds.\nThe tests were carried out using male NMRI mice (19-21 g). Experiments performed with different pretreatment times produced similar results."}, "[3]": {"test_system": "spinal reflex (L5 ventral root reflex potential)", "assay": "Inhibition of the spinal reflex in isolated hemisected spinal cord preparation, in vitro", "parameters": "species or system rat", "conditions": "alone", "description": "Our experiments were performed according to the methods described by Otsuka and Konishi (Otsuka, M., Konishi, S. Electrophysiology of mammalian spinal cord in vitro. Nature 252, 733-734; 1974), with slight modifications (Kocsis, P. et al. Participation of AMPA- and NMDA-type excitatory amino acid receptors in the spinal reflex transmission, in rat. Brain Research Bulletin 60: 81-91; 2003). The L5 dorsal root of the isolated, hemisected spinal cord preparation was stimulated by supramaximal electrical impulse and the reflex potential from the L5 ventral root was recorded. Different components of the reflex potential obtained are well distinguishable based on their post-stimulus latencies and durations. […] This preparation is ideal for the investigation of pharmacodynamic interactions between two substances, since metabolic factors take no part in them. […] Cont (control)=effect of crobenitine in itself; as well as in the presence of fluoxetine (Fluo; 1 μM), sertraline (Sert; 0.5 μM), paroxetine (Paro; 10 nM) and citalopram (Cital; 5 nM)."}, "[4]": {"test_system": "phenylquinone-induced acute pain", "assay": "Phenylquinone-induced acute pain (writhing test)", "assay_type": "in vivo, mice", "conditions": "with 10 mg/kg fluoxetine given 15 minutes prior to lamotrigine (i.p.); FIG. 5", "text": "The method used was described by Hendershot and Forsaith in 1959. (Kazuko Goto et al. Analgesic Effect of Mofezolac, a Non-Steroidal Anti-Inflammatory Drug, Against Phenylquinone-Induced Acute Pain in Mice. Prostaglandins & other Lipid Mediators 56: 245-254; 1998, Prem Prakash Singh et al. Acetic Acid and Phenylquinone WrithingTest: A Critical Study in Mice. Meth and Find Exptl Clin Pharmacol 5(9): 601-606; 1983.) Acute pain was induced by injecting phenylquinone, an irritant, into the abdominal cavity (0.02% solution, 0.1 ml/10 g bodyweight). […] Experiments were performed in male NMRI mice (19-21 g)."}, "[5]": {"conditions": "10 mg/kg intraperitoneal dose in mice"}, "[6]": {"conditions": "with fluoxetine (10 mg/kg) i.p. 45 minutes"}, "[7]": {"conditions": "with sertraline (10 mg/kg) i.p. 45 minutes"}, "[8]": {"conditions": "in combination with fluoxetine (10 mg/kg)"}, "[9]": {"conditions": "in combination with sertraline (10 mg/kg)"}}, "note": "Like-named read-outs stand apart in the source and are kept apart here.", "data": [{"smiles": "N=C1SCCN1c1c(Cl)cccc1Cl", "note": "[GYKI 20039, 3-(2,6-diclorophenyl)-2-iminothiazolidine]", "values": [{"measurement": "duration of induced tremor", "setting": "[1]; [5]", "result": "30 to 60", "unit": "min"}, {"measurement": "tremor induction", "setting": "[1]; [5]", "result": "intensive tremor"}]}, {"smiles": "C[C@@H](CN1CC[C@@]2(C)c3cccc(O)c3C[C@@H]1C2(C)C)OCc1ccccc1", "note": "[crobenetine]", "values": [{"measurement": "change of effectiveness in tremor test when a serotonin uptake inhibitor is present", "setting": "[1]", "result": "increase of their effectiveness"}, {"measurement": "ID50 (MES inhibition in mice)", "setting": "[2]; alone", "result": ">>20"}, {"measurement": "ID50 (MES inhibition in mice)", "setting": "[2]; [6]", "result": 17, "unit": "mg/kg"}, {"measurement": "ID50 (MES inhibition in mice)", "setting": "[2]; [7]", "result": 15.5, "unit": "mg/kg"}, {"measurement": "ED50 at 20 min", "setting": "Rotarod test; alone", "result": 68.1, "unit": "mg/kg"}, {"measurement": "ED50 at 20 min", "setting": "Rotarod test; [8]", "result": 38.6, "unit": "mg/kg"}, {"measurement": "ED50 at 35 min", "setting": "Rotarod test; [8]", "result": 51, "unit": "mg/kg"}, {"measurement": "ED50 at 20 min", "setting": "Rotarod test; [9]", "result": 36.8, "unit": "mg/kg"}, {"measurement": "ED50 at 35 min", "setting": "Rotarod test; [9]", "result": 53.1, "unit": "mg/kg"}]}, {"smiles": "CCc1ccc(C(=O)C(C)CN2CCCCC2)cc1", "note": "(stereo not shown) [eperisone]", "values": [{"measurement": "spinal reflex inhibitory effect", "setting": "[3]", "result": "considerable spinal reflex inhibitory effect"}]}, {"smiles": "CNCCC(Oc1ccc(C(F)(F)F)cc1)c1ccccc1", "note": "(stereo not shown) [fluoxetine]", "values": [{"measurement": "ED50 at 20 min", "setting": "Rotarod test; alone", "result": 43.5, "unit": "mg/kg"}, {"measurement": "ED50 at 35 min", "setting": "Rotarod test; alone", "result": 45.8, "unit": "mg/kg"}]}, {"smiles": "Nc1nnc(-c2cccc(Cl)c2Cl)c(N)n1", "note": "[lamotrigine]", "values": [{"measurement": "ID50 (i.p.) (calculated for the sodium channel blocker in the combination)", "setting": "[1]; tremor test, male NMRI mice, i.p., components administered simultaneously in fixed ratio", "result": 39.79, "unit": "mg/kg"}, {"measurement": "change of effectiveness in tremor test when a serotonin uptake inhibitor is present", "setting": "[1]", "result": "increase of their effectiveness"}, {"measurement": "ID50 (MES inhibition in mice)", "setting": "[2]; alone", "result": 4.5, "unit": "mg/kg"}, {"measurement": "ID50 (MES inhibition in mice)", "setting": "[2]; [6]", "result": 1.3, "unit": "mg/kg"}, {"measurement": "ID50 (MES inhibition in mice)", "setting": "[2]; [7]", "result": 1.4, "unit": "mg/kg"}, {"measurement": "ED50 at 20 min", "setting": "Rotarod test; alone", "result": 34.3, "unit": "mg/kg"}, {"measurement": "ED50 at 20 min", "setting": "Rotarod test; [8]", "result": 28.5, "unit": "mg/kg"}, {"measurement": "ED50 at 35 min", "setting": "Rotarod test; [8]", "result": 31.1, "unit": "mg/kg"}, {"measurement": "ED50 at 20 min", "setting": "Rotarod test; [9]", "result": 31.9, "unit": "mg/kg"}, {"measurement": "ED50 at 35 min", "setting": "Rotarod test; [9]", "result": 30.8, "unit": "mg/kg"}, {"measurement": "change in analgesic potency (ID50, writhing test) in the presence of a serotonin uptake inhibitor", "setting": "[4]", "result": "Increase in the analgesic potency"}]}, {"smiles": "CN[C@H]1CC[C@@H](c2ccc(Cl)c(Cl)c2)c2ccccc21", "note": "[sertraline]", "values": [{"measurement": "ED50 at 20 min", "setting": "Rotarod test; alone", "result": 112, "unit": "mg/kg"}, {"measurement": "ED50 at 35 min", "setting": "Rotarod test; alone", "result": 120, "unit": "mg/kg"}]}, {"smiles": "Cc1ccc(C(=O)C(C)CN2CCCCC2)cc1", "note": "(stereo not shown) [tolperisone]", "values": [{"measurement": "spinal reflex inhibitory effect", "setting": "[3]", "result": "considerable spinal reflex inhibitory effect"}]}]}
